Experimental data reported in patent publication EP4722207A1, “OXOISOINDOLINYL-SUBSTITUTED TETRAHYDROPYRIMIDINEDIONE DERIVATIVE AND USE THEREOF” (Gluetacs Therapeutics (Shanghai) Co., Ltd., priority 2023, dated 2024).

Columns and labels:
Assay type in all cases: cell-based
IKZF1 = target: T1, IKZF1 (Homo sapiens, UniProt Q13422+Q96SW2); test: Western-blot assay, substrate protein degradation in hPBMCs: IKZF1; details: for IKZF1 substrate protein remaining %: compounds at 50 nM and 500 nM, 24 hours
T1 construct: effects of the compounds of the present disclosure on the expression of target proteins in cells; endogenous in cells; host or cells: human PBMCs (hPBMCs)

IKZF3 = target: T2, IKZF3 (Homo sapiens, UniProt Q96SW2+Q9UKT9); test: Western-blot assay, substrate protein degradation in hPBMCs: IKZF3; details: for IKZF3 substrate protein remaining %: compounds at 50 nM and 500 nM, 24 hours
T2 construct: effects of the compounds of the present disclosure on the expression of target proteins in cells; endogenous in cells; host or cells: human PBMCs (hPBMCs)

IKZF2 = target: T3, IKZF2 (Homo sapiens, UniProt Q96SW2+Q9UKS7); test: Western-blot assay, substrate protein degradation in hPBMCs: IKZF2; details: for IKZF2 substrate protein remaining %: compounds at 50 nM and 500 nM, 24 hours
T3 construct: effects of the compounds of the present disclosure on the expression of target proteins in cells; endogenous in cells; host or cells: human PBMCs (hPBMCs)

GSPT1 = target: T4, GSPT1 (Homo sapiens, UniProt P15170+Q96SW2); test: Western-blot assay, substrate protein degradation in hPBMCs: GSPT1; details: for GSPT1 substrate protein remaining %: compounds at 50 nM and 500 nM, 24 hours
T4 construct: effects of the compounds of the present disclosure on the expression of target proteins in cells; endogenous in cells; host or cells: human PBMCs (hPBMCs)

CK1α = target: T5, CK1α (Homo sapiens, UniProt P48729+Q96SW2); test: Western-blot assay, substrate protein degradation in hPBMCs: CK1α; details: for CK1α substrate protein remaining %: compounds at 50 nM and 500 nM, 24 hours
T5 construct: effects of the compounds of the present disclosure on the expression of target proteins in cells; endogenous in cells; host or cells: human PBMCs (hPBMCs)

WEE1 = target: T6, WEE1 (Homo sapiens, UniProt P30291+Q96SW2); test: Western-blot assay, substrate protein degradation in hPBMCs: WEE1; details: for WEE1 substrate protein remaining %: compounds at 50 nM and 500 nM, 24 hours
T6 construct: effects of the compounds of the present disclosure on the expression of target proteins in cells; endogenous in cells; host or cells: human PBMCs (hPBMCs)

[1] = 24 hours of compound treatment, 50 nM and 500 nM

T4 sequence (P15170 whole entry): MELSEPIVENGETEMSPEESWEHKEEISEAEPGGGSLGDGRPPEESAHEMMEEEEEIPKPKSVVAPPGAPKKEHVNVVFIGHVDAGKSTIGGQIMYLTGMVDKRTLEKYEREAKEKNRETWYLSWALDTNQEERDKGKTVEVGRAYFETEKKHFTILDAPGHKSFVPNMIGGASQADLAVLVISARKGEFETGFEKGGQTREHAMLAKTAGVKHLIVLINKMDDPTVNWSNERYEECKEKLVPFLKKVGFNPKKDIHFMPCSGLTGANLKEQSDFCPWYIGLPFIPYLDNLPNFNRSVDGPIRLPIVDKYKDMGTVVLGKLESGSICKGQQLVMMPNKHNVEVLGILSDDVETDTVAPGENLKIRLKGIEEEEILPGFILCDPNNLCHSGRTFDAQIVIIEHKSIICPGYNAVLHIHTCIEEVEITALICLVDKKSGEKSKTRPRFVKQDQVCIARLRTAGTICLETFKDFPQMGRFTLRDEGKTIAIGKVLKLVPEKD
T4 sequence (Q96SW2 whole entry): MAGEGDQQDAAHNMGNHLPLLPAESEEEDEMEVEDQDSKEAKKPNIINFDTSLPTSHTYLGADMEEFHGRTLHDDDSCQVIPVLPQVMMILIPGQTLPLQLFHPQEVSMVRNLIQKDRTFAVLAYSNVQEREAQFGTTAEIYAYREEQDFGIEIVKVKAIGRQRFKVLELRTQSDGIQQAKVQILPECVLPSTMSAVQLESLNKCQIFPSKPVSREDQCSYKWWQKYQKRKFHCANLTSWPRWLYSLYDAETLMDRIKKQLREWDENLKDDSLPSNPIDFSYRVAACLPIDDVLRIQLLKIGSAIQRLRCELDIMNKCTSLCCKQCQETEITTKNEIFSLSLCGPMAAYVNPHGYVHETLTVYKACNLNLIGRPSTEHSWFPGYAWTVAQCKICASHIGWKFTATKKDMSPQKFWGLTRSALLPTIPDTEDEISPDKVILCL
T4 sequence (Q16531 whole entry partner): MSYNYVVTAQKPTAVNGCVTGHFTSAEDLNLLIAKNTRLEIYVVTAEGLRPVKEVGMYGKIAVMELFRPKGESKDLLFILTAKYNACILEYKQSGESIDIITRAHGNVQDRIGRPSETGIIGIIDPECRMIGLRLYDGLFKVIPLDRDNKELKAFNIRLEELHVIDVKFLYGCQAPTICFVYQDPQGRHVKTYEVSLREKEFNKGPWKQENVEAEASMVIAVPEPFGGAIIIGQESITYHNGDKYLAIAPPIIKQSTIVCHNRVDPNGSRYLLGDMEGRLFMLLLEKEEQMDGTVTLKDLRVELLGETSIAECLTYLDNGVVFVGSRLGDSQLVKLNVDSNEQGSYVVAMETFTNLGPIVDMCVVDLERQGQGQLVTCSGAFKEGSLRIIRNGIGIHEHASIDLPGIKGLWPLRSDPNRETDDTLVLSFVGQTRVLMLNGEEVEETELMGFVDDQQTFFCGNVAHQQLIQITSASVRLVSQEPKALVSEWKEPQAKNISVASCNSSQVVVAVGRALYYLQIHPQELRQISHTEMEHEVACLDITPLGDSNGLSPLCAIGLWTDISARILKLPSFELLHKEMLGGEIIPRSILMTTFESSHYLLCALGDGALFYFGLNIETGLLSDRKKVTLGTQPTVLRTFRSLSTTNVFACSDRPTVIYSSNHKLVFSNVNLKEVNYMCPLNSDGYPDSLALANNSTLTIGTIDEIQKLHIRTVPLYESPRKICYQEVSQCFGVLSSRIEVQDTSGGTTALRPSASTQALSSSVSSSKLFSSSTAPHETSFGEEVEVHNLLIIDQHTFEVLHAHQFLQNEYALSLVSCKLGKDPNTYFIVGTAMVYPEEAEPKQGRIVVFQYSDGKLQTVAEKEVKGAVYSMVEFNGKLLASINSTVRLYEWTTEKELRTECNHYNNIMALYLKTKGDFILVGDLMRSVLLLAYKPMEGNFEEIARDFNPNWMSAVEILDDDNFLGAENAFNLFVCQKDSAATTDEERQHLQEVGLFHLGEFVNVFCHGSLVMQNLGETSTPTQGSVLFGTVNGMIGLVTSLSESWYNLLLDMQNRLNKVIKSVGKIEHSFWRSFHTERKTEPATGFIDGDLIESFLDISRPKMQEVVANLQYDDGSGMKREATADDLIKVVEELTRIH
T3 sequence (Q9UKS7 whole entry): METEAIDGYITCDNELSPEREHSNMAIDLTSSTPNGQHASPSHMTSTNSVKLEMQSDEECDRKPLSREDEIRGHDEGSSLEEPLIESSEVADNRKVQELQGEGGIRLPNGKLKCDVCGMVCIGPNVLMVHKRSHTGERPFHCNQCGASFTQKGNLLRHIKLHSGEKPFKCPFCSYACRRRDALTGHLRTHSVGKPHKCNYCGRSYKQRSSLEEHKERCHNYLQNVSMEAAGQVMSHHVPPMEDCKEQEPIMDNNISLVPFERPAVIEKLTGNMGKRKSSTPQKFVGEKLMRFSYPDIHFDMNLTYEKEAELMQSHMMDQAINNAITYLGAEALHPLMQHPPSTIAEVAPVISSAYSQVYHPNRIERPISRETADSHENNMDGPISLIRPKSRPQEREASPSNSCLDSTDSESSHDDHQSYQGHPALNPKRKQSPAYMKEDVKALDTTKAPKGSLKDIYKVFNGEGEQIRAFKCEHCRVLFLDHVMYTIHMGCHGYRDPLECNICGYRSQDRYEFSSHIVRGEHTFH
T3 sequence (Q96SW2 whole entry): as the sequence (Q96SW2 whole entry) above
T3 sequence (Q16531 whole entry partner): as the sequence (Q16531 whole entry partner) above
T1 sequence (Q13422 whole entry): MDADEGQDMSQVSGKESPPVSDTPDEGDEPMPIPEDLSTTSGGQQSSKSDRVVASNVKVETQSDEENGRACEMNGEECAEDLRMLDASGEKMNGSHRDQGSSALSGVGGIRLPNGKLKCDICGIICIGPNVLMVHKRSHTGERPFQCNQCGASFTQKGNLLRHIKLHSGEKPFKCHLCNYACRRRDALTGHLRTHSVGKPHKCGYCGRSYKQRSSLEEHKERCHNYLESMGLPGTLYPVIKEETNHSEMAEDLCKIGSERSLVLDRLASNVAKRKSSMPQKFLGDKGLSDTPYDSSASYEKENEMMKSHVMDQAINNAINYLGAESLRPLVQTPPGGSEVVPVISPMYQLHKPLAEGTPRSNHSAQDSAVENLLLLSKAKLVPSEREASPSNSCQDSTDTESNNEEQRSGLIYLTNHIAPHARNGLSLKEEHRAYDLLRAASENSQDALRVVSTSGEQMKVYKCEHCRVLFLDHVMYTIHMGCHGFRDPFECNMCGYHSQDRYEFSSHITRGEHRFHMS
T1 sequence (Q96SW2 whole entry): as the sequence (Q96SW2 whole entry) above
T1 sequence (Q16531 whole entry partner): as the sequence (Q16531 whole entry partner) above
T6 sequence (P30291 whole entry): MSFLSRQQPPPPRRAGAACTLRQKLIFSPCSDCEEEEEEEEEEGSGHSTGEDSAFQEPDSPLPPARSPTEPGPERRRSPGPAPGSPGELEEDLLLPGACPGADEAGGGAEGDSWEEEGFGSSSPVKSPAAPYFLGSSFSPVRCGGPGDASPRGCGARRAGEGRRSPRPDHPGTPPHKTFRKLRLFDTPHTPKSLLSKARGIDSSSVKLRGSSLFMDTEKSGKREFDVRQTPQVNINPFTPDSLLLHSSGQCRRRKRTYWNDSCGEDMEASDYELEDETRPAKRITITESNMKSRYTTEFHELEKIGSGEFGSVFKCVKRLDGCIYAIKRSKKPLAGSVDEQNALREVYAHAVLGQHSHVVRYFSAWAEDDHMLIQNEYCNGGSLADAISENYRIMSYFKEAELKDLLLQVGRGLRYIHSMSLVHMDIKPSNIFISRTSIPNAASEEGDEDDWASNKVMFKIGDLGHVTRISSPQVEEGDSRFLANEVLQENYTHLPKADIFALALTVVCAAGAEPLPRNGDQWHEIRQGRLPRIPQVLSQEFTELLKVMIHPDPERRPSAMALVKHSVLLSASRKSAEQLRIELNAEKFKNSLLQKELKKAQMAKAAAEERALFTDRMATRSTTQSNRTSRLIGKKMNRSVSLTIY
T6 sequence (Q96SW2 whole entry): as the sequence (Q96SW2 whole entry) above
T6 sequence (Q16531 whole entry partner): as the sequence (Q16531 whole entry partner) above
T5 sequence (P48729 whole entry): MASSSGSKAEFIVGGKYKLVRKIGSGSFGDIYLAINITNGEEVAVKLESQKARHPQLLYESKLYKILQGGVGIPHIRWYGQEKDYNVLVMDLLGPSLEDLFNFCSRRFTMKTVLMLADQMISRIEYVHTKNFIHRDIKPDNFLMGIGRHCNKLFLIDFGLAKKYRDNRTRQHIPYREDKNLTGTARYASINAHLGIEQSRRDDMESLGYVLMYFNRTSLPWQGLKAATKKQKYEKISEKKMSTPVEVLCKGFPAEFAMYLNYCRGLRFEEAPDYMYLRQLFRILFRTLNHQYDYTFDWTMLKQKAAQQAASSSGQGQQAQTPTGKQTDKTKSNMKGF
T5 sequence (Q96SW2 whole entry): as the sequence (Q96SW2 whole entry) above
T5 sequence (Q16531 whole entry partner): as the sequence (Q16531 whole entry partner) above

Structure (SMILES): O=C1CCN(N2Cc3cc(CN4C5CC4CN(c4cccc(Cl)c4Cl)C5)ccc3C2=O)C(=O)N1 [GT-05162, 1-(5-((3-(2,3-dichlorophenyl)-3,6-diazabicyclo[3.1.1]heptan-6-yl)methyl)-1-oxoisoindolin-2-yl)dihydropyrimidine-2,4(1H,3H)-dione]
- IKZF1 substrate protein remaining % (IKZF1): B ("B" is defined as 80%< substrate protein remaining %≤ 100%)
- IKZF3 substrate protein remaining % (IKZF3): A ("A" is defined as 0% ≤ substrate protein remaining % ≤ 80%)
- IKZF2 substrate protein remaining % (IKZF2): B ("B" is defined as 80%< substrate protein remaining %≤ 100%)
- GSPT1 substrate protein remaining % (GSPT1): A ("A" is defined as 0% ≤ substrate protein remaining % ≤ 80%)
- CK1α substrate protein remaining % (CK1α): B ("B" is defined as 80%< substrate protein remaining %≤ 100%)
- WEE1 substrate protein remaining % (WEE1): B ("B" is defined as 80%< substrate protein remaining %≤ 100%)

Structure (SMILES): Cc1cscc1C1CCN(Cc2ccc3c(c2)C(=O)N(N2CCC(=O)NC2=O)C3=O)CC1 [GT-05314, 2-(2,4-dioxotetrahydropyrimidin-1(2H)-yl)-5-((4-(4-methylthiophen-3-yl)piperidin-1-yl)methyl)isoindoline-1,3-dione]
- IKZF1 substrate protein remaining % (IKZF1): B ("B" is defined as 80%< substrate protein remaining %≤ 100%)
- IKZF3 substrate protein remaining % (IKZF3): B ("B" is defined as 80%< substrate protein remaining %≤ 100%)
- IKZF2 substrate protein remaining % (IKZF2): B ("B" is defined as 80%< substrate protein remaining %≤ 100%)
- GSPT1 substrate protein remaining % (GSPT1): A ("A" is defined as 0% ≤ substrate protein remaining % ≤ 80%)
- CK1α substrate protein remaining % (CK1α): B ("B" is defined as 80%< substrate protein remaining %≤ 100%)
- WEE1 substrate protein remaining % (WEE1): B ("B" is defined as 80%< substrate protein remaining %≤ 100%)

Structure (SMILES): O=C1CCN(N2C(=O)c3ccc(CN4CC=C(c5ccnc(F)c5F)CC4)cc3C2=O)C(=O)N1 [GT-07494, 5-((2',3'-difluoro-3,6-dihydro-[4,4'-bipyridin]-1(2H)-yl)methyl)-2-(2,4-dioxotetrahydropyrimidin-1(2H)-yl)isoindoline-1,3-dione]
- substrate protein remaining % IKZF1 (IKZF1; [1]): B (80%< substrate protein remaining %≤ 100%)
- substrate protein remaining % IKZF3 (IKZF3; [1]): B (80%< substrate protein remaining %≤ 100%)
- substrate protein remaining % IKZF2 (IKZF2; [1]): B (80%< substrate protein remaining %≤ 100%)
- substrate protein remaining % GSPT1 (GSPT1; [1]): B (80%< substrate protein remaining %≤ 100%)
- substrate protein remaining % CK1α (CK1α; [1]): A (0% ≤ substrate protein remaining % ≤ 80%)
- substrate protein remaining % WEE1 (WEE1; [1]): A (0% ≤ substrate protein remaining % ≤ 80%)

Structure (SMILES): O=C1CCN(N2Cc3cc(CN4CCN(c5cc(F)ccc5F)CC4)ccc3C2=O)C(=O)N1 [GT-06779, 1-(5-((4-(2,5-difluorophenyl)piperazin-1-yl)methyl)-1-oxoisoindolin-2-yl)dihydropyrimidine-2,4(1H,3H)-dione]
- IKZF1 substrate protein remaining % (IKZF1): B ("B" is defined as 80%< substrate protein remaining %≤ 100%)
- IKZF3 substrate protein remaining % (IKZF3): B ("B" is defined as 80%< substrate protein remaining %≤ 100%)
- IKZF2 substrate protein remaining % (IKZF2): B ("B" is defined as 80%< substrate protein remaining %≤ 100%)
- GSPT1 substrate protein remaining % (GSPT1): B ("B" is defined as 80%< substrate protein remaining %≤ 100%)
- CK1α substrate protein remaining % (CK1α): A ("A" is defined as 0% ≤ substrate protein remaining % ≤ 80%)
- WEE1 substrate protein remaining % (WEE1): B ("B" is defined as 80%< substrate protein remaining %≤ 100%)

Structure (SMILES): CC1(C)CCC(CN2C3CC2CN(Cc2ccc4c(c2)C(=O)N(N2CCC(=O)NC2=O)C4=O)C3)=C(c2ccc(Cl)cc2)C1 [GT-06459, 5-((6-((4'-chloro-5,5-dimethyl-3,4,5,6-tetrahydro-[1,1'-biphenyl]-2-yl)methyl)-3,6-diazabicyclo[3.1.1]heptan-3-yl)methyl)-2-(2,4-dioxotetrahydropyrimidin-1(2H)-yl)isoindoline-1,3-dione]
- IKZF1 substrate protein remaining % (IKZF1): A ("A" is defined as 0% ≤ substrate protein remaining % ≤ 80%)
- IKZF3 substrate protein remaining % (IKZF3): A ("A" is defined as 0% ≤ substrate protein remaining % ≤ 80%)
- IKZF2 substrate protein remaining % (IKZF2): A ("A" is defined as 0% ≤ substrate protein remaining % ≤ 80%)
- GSPT1 substrate protein remaining % (GSPT1): A ("A" is defined as 0% ≤ substrate protein remaining % ≤ 80%)
- CK1α substrate protein remaining % (CK1α): A ("A" is defined as 0% ≤ substrate protein remaining % ≤ 80%)
- WEE1 substrate protein remaining % (WEE1): A ("A" is defined as 0% ≤ substrate protein remaining % ≤ 80%)

Structure (SMILES): O=C1CCN(N2C(=O)c3ccc(CN4CCN(c5ncccn5)CC4)cc3C2=O)C(=O)N1 [GT-07285, 2-(2,4-dioxotetrahydropyrimidin-1(2H)-yl)-5-((4-(pyrimidin-2-yl)piperazin-1-yl)methyl)isoindoline-1,3-dione]
- IKZF1 substrate protein remaining % (IKZF1): A ("A" is defined as 0% ≤ substrate protein remaining % ≤ 80%)
- IKZF3 substrate protein remaining % (IKZF3): B ("B" is defined as 80%< substrate protein remaining %≤ 100%)
- IKZF2 substrate protein remaining % (IKZF2): B ("B" is defined as 80%< substrate protein remaining %≤ 100%)
- GSPT1 substrate protein remaining % (GSPT1): B ("B" is defined as 80%< substrate protein remaining %≤ 100%)
- CK1α substrate protein remaining % (CK1α): B ("B" is defined as 80%< substrate protein remaining %≤ 100%)
- WEE1 substrate protein remaining % (WEE1): A ("A" is defined as 0% ≤ substrate protein remaining % ≤ 80%)

Structure (SMILES): O=C1CCN(N2C(=O)c3ccc(CN4CCN(c5nccc(I)c5F)CC4)cc3C2=O)C(=O)N1 [GT-06970, 2-(2,4-dioxotetrahydropyrimidin-1(2H)-yl)-5-((4-(3-fluoro-4-iodopyridin-2-yl)piperazin-1-yl)methyl)isoindoline-1,3-dione]
- IKZF1 substrate protein remaining % (IKZF1): B ("B" is defined as 80%< substrate protein remaining %≤ 100%)
- IKZF3 substrate protein remaining % (IKZF3): B ("B" is defined as 80%< substrate protein remaining %≤ 100%)
- IKZF2 substrate protein remaining % (IKZF2): A ("A" is defined as 0% ≤ substrate protein remaining % ≤ 80%)
- GSPT1 substrate protein remaining % (GSPT1): B ("B" is defined as 80%< substrate protein remaining %≤ 100%)
- CK1α substrate protein remaining % (CK1α): B ("B" is defined as 80%< substrate protein remaining %≤ 100%)
- WEE1 substrate protein remaining % (WEE1): A ("A" is defined as 0% ≤ substrate protein remaining % ≤ 80%)

Structure (SMILES): O=C1CCN(N2C(=O)c3ccc(CN4CCN(c5ncnc(Cl)c5Cl)CC4)cc3C2=O)C(=O)N1 [GT-07034, 5-((4-(5,6-dichloropyrimidin-4-yl)piperazin-1-yl)methyl)-2-(2,4-dioxotetrahydropyrimidin-1(2H)-yl)isoindoline-1,3-dione]
- IKZF1 substrate protein remaining % (IKZF1): A ("A" is defined as 0% ≤ substrate protein remaining % ≤ 80%)
- IKZF3 substrate protein remaining % (IKZF3): A ("A" is defined as 0% ≤ substrate protein remaining % ≤ 80%)
- IKZF2 substrate protein remaining % (IKZF2): A ("A" is defined as 0% ≤ substrate protein remaining % ≤ 80%)
- GSPT1 substrate protein remaining % (GSPT1): A ("A" is defined as 0% ≤ substrate protein remaining % ≤ 80%)
- CK1α substrate protein remaining % (CK1α): A ("A" is defined as 0% ≤ substrate protein remaining % ≤ 80%)
- WEE1 substrate protein remaining % (WEE1): A ("A" is defined as 0% ≤ substrate protein remaining % ≤ 80%)

Structure (SMILES): O=C1CCN(N2C(=O)c3ccc(CN4CCC(c5ccco5)CC4)cc3C2=O)C(=O)N1 [GT-05315, 2-(2,4-dioxotetrahydropyrimidin-1(2H)-yl)-5-((4-(furan-2-yl)piperidin-1-yl)methyl)isoindoline-1,3-dione]
- IKZF1 substrate protein remaining % (IKZF1): B ("B" is defined as 80%< substrate protein remaining %≤ 100%)
- IKZF3 substrate protein remaining % (IKZF3): B ("B" is defined as 80%< substrate protein remaining %≤ 100%)
- IKZF2 substrate protein remaining % (IKZF2): B ("B" is defined as 80%< substrate protein remaining %≤ 100%)
- GSPT1 substrate protein remaining % (GSPT1): A ("A" is defined as 0% ≤ substrate protein remaining % ≤ 80%)
- CK1α substrate protein remaining % (CK1α): B ("B" is defined as 80%< substrate protein remaining %≤ 100%)
- WEE1 substrate protein remaining % (WEE1): B ("B" is defined as 80%< substrate protein remaining %≤ 100%)

Structure (SMILES): C[C@@H]1CN(C(c2ccccc2)c2ccccc2)CCN1Cc1ccc2c(c1)CN(N1CCC(=O)NC1=O)C2=O [GT-06448, (R)-1-(5-((4-benzhydryl-2-methylpiperazin-1-yl)methyl)-1-oxoisoindolin-2-yl)dihydropyrimidine-2,4(1H,3H)-dione]
- IKZF1 substrate protein remaining % (IKZF1): B ("B" is defined as 80%< substrate protein remaining %≤ 100%)
- IKZF3 substrate protein remaining % (IKZF3): A ("A" is defined as 0% ≤ substrate protein remaining % ≤ 80%)
- IKZF2 substrate protein remaining % (IKZF2): A ("A" is defined as 0% ≤ substrate protein remaining % ≤ 80%)
- GSPT1 substrate protein remaining % (GSPT1): A ("A" is defined as 0% ≤ substrate protein remaining % ≤ 80%)
- CK1α substrate protein remaining % (CK1α): B ("B" is defined as 80%< substrate protein remaining %≤ 100%)
- WEE1 substrate protein remaining % (WEE1): B ("B" is defined as 80%< substrate protein remaining %≤ 100%)
